Patent US11147272B2, “Pyridone compounds and agricultural and horticultural fungicides comprising the same as active ingredients” (MITSUI CHEMICALS AGRO, INC., priority 2017, dated 2021)

Columns and labels:
Botrytis cinerea = experiment: Test Example B: Gray mold on tomato; conditions: Gray mold on tomato; control value class
Alternaia brassicicola = experiment: Test Example C: Alternaria sooty spot on cabbage; assay type: in vivo; conditions: Alternaria sooty spot on cabbage; control value class
Source text: Seeds of a test plant (cabbage variety: Shikidori) were planted and cultivated until the cotyledons extended.
<Control Value> Control value=100{1−(n/3)}

[1] = system: Blumeria graminis f. sp. hordei; experiment: Test Example D: Powdery mildew on barley; conditions: Powdery mildew on barley; control value class
Plasmopara viticola = experiment: Test Example G: Downy mildew on vine; conditions: Downy mildew on vine; 250 ppm spray, 7 to 10 days after inoculation
Protocol: Seeds of a test plant (grape variety: Neomuscat) were planted and cultivated until three to four first leaves appeared. In the test, the inventive compounds were dissolved into dimethyl sulfoxide-methanol mixture solution (volume ratio: 9/1), and the resultant solutions were diluted with well water to a concentration of 250 ppm to obtain the drug solutions. The drug solutions were sprayed to the test plant (2.5 ml/pot). After the drug solutions dried, a zoosporangia suspension (1-2×10^4 zoosporangia/ml) of Plasmopara viticola was inoculated to the plant by spraying. After the inoculation, the plant was kept in a mist chamber at room temperature of 20° C. for about 24 hours to promote the onset of disease. The degrees of disease development were investigated 7 to 10 days after the inoculation, and the effectiveness of the drug solutions was evaluated.
In Test Examples described above, the degrees of disease development were evaluated in increments of 0.05 from 0 (as no incidence of disease) to 3 (as the degree of disease development in an untreated plant group). Further, control values were calculated using the following equation based on the degree of disease development.
n=Degree of disease development in each treated group

Phytophthora infestans = experiment: whole plant or invertebrate; assay type: in vivo; conditions: Late blight on tomato; control value class
Puccinia recondita = experiment: Test Example E: Brown rust on wheat; assay type: in vivo; conditions: Brown rust on wheat; control value class
Magnaporthe grisea = experiment: whole plant or invertebrate; assay type: in vivo; conditions: Blast on rice; control value class
[2] = system: Colletotrichum orbiculare; experiment: Test Example H: Anthracnose on cucumber; conditions: Anthracnose on cucumber; 250 ppm spray, 6 to 10 days after inoculation

Row | SMILES | Test B control value (Botrytis cinerea) | Test C control value (Alternaia brassicicola) | Test D control value [1] | Test G control value (Plasmopara viticola) | Test F control value (Phytophthora infestans) | Test E control value (Puccinia recondita) | Test A control value (Magnaporthe grisea) | Test H control value [2]
1 | CCCCc1cc(Br)c(=O)n(CC)c1-c1ccc(F)cc1Cl [compound 207] | H (more than 50% control value) | H (more than 50% control value) | H (more than 50% control value) | H (more than 50% control value) | L (50% or less control value) | H (more than 50% control value) | H (more than 50% control value) | H (more than 50% control value)
2 | CCCCc1ccc(=O)n(CC)c1-c1ccc(F)cc1Cl [compound 208] | H (more than 50% control value) | H (more than 50% control value) | H (more than 50% control value) | L (50% or less control value) | L (50% or less control value) | H (more than 50% control value) | H (more than 50% control value) | L (50% or less control value)
3 | CCCCCc1cc(Cl)c(=O)n(CC)c1-c1ccc(F)cc1Cl [compound 209] | H (more than 50% control value) | H (more than 50% control value) | H (more than 50% control value) | H (more than 50% control value) | L (50% or less control value) | H (more than 50% control value) | H (more than 50% control value) | H (more than 50% control value)
4 | CCCCCc1cc(Br)c(=O)n(CC)c1-c1ccc(F)cc1Cl [compound 210] | H (more than 50% control value) | H (more than 50% control value) | H (more than 50% control value) | L (50% or less control value) | L (50% or less control value) | H (more than 50% control value) | H (more than 50% control value) | H (more than 50% control value)
5 | CCn1c(-c2ccc(F)cc2)c(C(O)C(C)C)cc(Cl)c1=O (stereo not shown) [compound 211] | H (more than 50% control value) | H (more than 50% control value) | L (50% or less control value) | L (50% or less control value) | L (50% or less control value) | H (more than 50% control value) | L (50% or less control value) | L (50% or less control value)
6 | CCn1c(-c2ccc(F)cc2)c(C(=O)C(C)C)cc(Cl)c1=O [compound 212] | H (more than 50% control value) | H (more than 50% control value) | H (more than 50% control value) | L (50% or less control value) | L (50% or less control value) | H (more than 50% control value) | L (50% or less control value) | L (50% or less control value)
7 | CCn1c(-c2ccc(F)cc2)c(C(C)(O)C(C)C)cc(Cl)c1=O (stereo not shown) [compound 213] | H (more than 50% control value) | H (more than 50% control value) | H (more than 50% control value) | H (more than 50% control value) | L (50% or less control value) | H (more than 50% control value) | H (more than 50% control value) | H (more than 50% control value)
8 | CCn1c(-c2ccc(F)cc2)c(C(C)(OC)C(C)C)cc(Cl)c1=O (stereo not shown) [compound 214] | H (more than 50% control value) | H (more than 50% control value) | H (more than 50% control value) | L (50% or less control value) | L (50% or less control value) | H (more than 50% control value) | H (more than 50% control value) | L (50% or less control value)
9 | CCOC(C)(c1cc(Cl)c(=O)n(CC)c1-c1ccc(F)cc1)C(C)C (stereo not shown) [compound 215] | L (50% or less control value) | L (50% or less control value) | H (more than 50% control value) | L (50% or less control value) | L (50% or less control value) | L (50% or less control value) | L (50% or less control value) | L (50% or less control value)
10 | CCCOC(C)(c1cc(Cl)c(=O)n(CC)c1-c1ccc(F)cc1)C(C)C (stereo not shown) [compound 216] | L (50% or less control value) | L (50% or less control value) | H (more than 50% control value) | L (50% or less control value) | L (50% or less control value) | L (50% or less control value) | L (50% or less control value) | L (50% or less control value)
11 | CCn1c(-c2ccc(F)cc2)c(C(C)(F)C(C)C)cc(Cl)c1=O (stereo not shown) [compound 217] | H (more than 50% control value) | H (more than 50% control value) | H (more than 50% control value) | L (50% or less control value) | L (50% or less control value) | H (more than 50% control value) | H (more than 50% control value) | H (more than 50% control value)
12 | CCOc1cc(F)c(-c2c(C(=O)C(C)C)cc(Cl)c(=O)n2CC)c(F)c1 [compound 218] | H (more than 50% control value) | H (more than 50% control value) | H (more than 50% control value) | H (more than 50% control value) | L (50% or less control value) | H (more than 50% control value) | H (more than 50% control value) | H (more than 50% control value)
13 | CCn1c(-c2ccc(F)cc2Cl)c(C2CCCC2)ccc1=O [compound 219] | H (more than 50% control value) | H (more than 50% control value) | H (more than 50% control value) | L (50% or less control value) | L (50% or less control value) | H (more than 50% control value) | H (more than 50% control value) | L (50% or less control value)
14 | CCn1c(-c2ccc(F)cc2Cl)c(C2CCCC2)cc(Cl)c1=O [compound 220] | H (more than 50% control value) | H (more than 50% control value) | H (more than 50% control value) | H (more than 50% control value) | L (50% or less control value) | H (more than 50% control value) | H (more than 50% control value) | H (more than 50% control value)
15 | CCn1c(-c2ccc(F)cc2Cl)c(C2CCCC2)cc(Br)c1=O [compound 221] | H (more than 50% control value) | H (more than 50% control value) | H (more than 50% control value) | L (50% or less control value) | L (50% or less control value) | H (more than 50% control value) | H (more than 50% control value) | L (50% or less control value)
16 | CCn1c(-c2ccc(OC)cc2)c(C(=O)C(C)C)cc(Cl)c1=O [compound 222] | H (more than 50% control value) | H (more than 50% control value) | H (more than 50% control value) | L (50% or less control value) | L (50% or less control value) | H (more than 50% control value) | L (50% or less control value) | L (50% or less control value)
17 | CCn1c(-c2ccc(OC)cc2)c(C(C)(O)C(C)C)cc(Cl)c1=O (stereo not shown) [compound 223] | H (more than 50% control value) | H (more than 50% control value) | L (50% or less control value) | L (50% or less control value) | L (50% or less control value) | H (more than 50% control value) | L (50% or less control value) | L (50% or less control value)
